Results taken from US8575208B2, “Inhibitors of serine proteases” (priority 2007, dated 2013).

Target: T1, HCV NS3 serine protease (UniProt Q9WMX2)
T1 construct: fused on or other part: Assay 1: C-terminal hexa-histidine tag
Assay: HCV enzymatic assay (HCV NS3 peptide cleavage assays, apparent Ki)
Format: biochemical, hepatitis C virus
Settings: serine protease activity measured using the HCV Enzyme Assays; Assay No. 1 / Assay No. 2 not given
Method: This assay is a modification of that described by Landro, et al. (Landro J A, Raybuck S A, Luong Y C, O'Malley E T, Harbeson S L, Morgenstern K A, Rao G and Livingston D L. Biochemistry 1997, 36, 9340-9348), and uses a peptide substrate (NS5AB), based on the NS5A/NS5B cleavage site for genotype la HCV. The substrate stock solution (25 mM) was prepared in DMSO containing 0.2 M DTT and stored at −20° C. A synthetic peptide cofactor (KK4A) was used as a substitute for the central core region of NS4A. The reaction was performed in a 96-well microtiter plate format using 25 ηM to 50 ηM HCV NS3 protease domain in buffer containing 50 mM HEPES pH 7.8, 100 mM NaCl, 20% glycerol, 5 mM DTT and 25 μM KK4A. The final DMSO concentration was no greater than 2% v/v. Reactions were quenched by addition of trifluoroacetic acid (TFA) to yield a final concentration of 2.5%.
The SMSY product was separated from substrate and KK4A using a microbore separation method. The instrument used was a Agilent 1100 with a G1322A degasser, either a G1312A binary pump or a G1311A quaternary pump, a G1313A autosampler, a G1316A column thermostated chamber and a G1315A diode array detector. The column was a Phenomenex Jupiter, 5 μm C18, 300 Å, 150×2 mm, P/O 00F-4053-B0, with a flow-rate of 0.2 mL/min. The column thermostat was at 40° C. Mobile phases were HPLC grade H2O/0.1% TFA (solvent A) and HPLC grade CH3CN/0.1% TFA (solvent B). The SMSY product peak was quantitated using the data collected at […].
This assay follows the cleavage of a peptide substrate by full-length hepatitis C viral protein NS3•4A. One of three peptide substrates based on the NS5A/NS5B cleavage site for genotype 1a HCV is used to measure enzyme activity. All substrate stock solutions (25 mM) were prepared in DMSO containing 0.2M DTT and stored at −20° C. A synthetic peptide cofactor (NS4A Peptide) was used to supplement NS4A. Peptide sequences are shown below. The hydrolysis reaction was performed in a 96-well microtiter plate format using 100 ηM to 125 ηM HCV NS3•4A in buffer containing 50 mM HEPES pH 7.8, 100 mM NaCl, 20% glycerol, 5 mM DTT and 25 μM NS4A Peptide. The final DMSO concentration was no greater than 2% v/v. Reactions using NS5AB or NS5AB-EDANS as substrate were quenched by the addition of 10% trifluoroacetic acid (TFA) to yield a final TFA concentration of 2.5%. Reactions using FITC-NS5AB-1 as substrate were quenched by the addition of 0.4M formic acid to yield a final concentration of 0.08M acid.
Enzymatic activity was assessed by separation of substrate and products by reverse phase HPLC. The instrument used was a Agilent 1100 with a G1322A degasser, either a G1312A binary pump or a G1311A quaternary pump, a G1313A autosampler, a G1316A column thermostated chamber, a G1321A fluorescence detector and a G1315A diode array detector. The column thermostat was at 40° C. For substrate NS5AB the column was a Phenomenex Jupiter, 5 μm C18, 300 Å, 150×2 mm, P/O 00F-4053-B0, with a flow-rate of 0.2 mL/min using HPLC grade H2O/0.1% TFA (solvent A) and HPLC grade CH3CN/0.1% TFA (solvent B) as mobile phases. The C-terminal product peak (NH2-SMSY-COOH) was quantitated using the absorbance data collected at 210 ηm. For substrate NS5AB-EDANS the column was a Phenomenex Aqua, 5 μm C18, 125 Å, 50×4.6 mm, P/O 00B-4299-E0, with a flow-rate of 1.0 mL/min using HPLC grade H2O/0.1% TFA (solvent A) and HPLC grade CH3CN/0.1% TFA (solvent B) as mobile phases. The C-terminal product peak (NH2-SMSYT-Asp(EDANS)-KKK-COOH) was quantitated using the fluorescence data collected at 350 ηm excitation/490 ηm emission. For substrate FITC-NS5AB-1 the column was a Phenomenex Prodigy, 5 μm ODS(2), 125 Å, 50×4.6 mm, P/O 00B-3300-E0, with a flow-rate of 1.0 mL/min using 10 mM sodium phosphate pH 7.0 in HPLC grade H2O (solvent A) and 65% HPLC Grade CH3CN/35% 10 mM sodium phosphate pH 7.0 in HPLC grade H2O (solvent B) as mobile phases. […]

T1 sequence (Q9WMX2 1027-1657): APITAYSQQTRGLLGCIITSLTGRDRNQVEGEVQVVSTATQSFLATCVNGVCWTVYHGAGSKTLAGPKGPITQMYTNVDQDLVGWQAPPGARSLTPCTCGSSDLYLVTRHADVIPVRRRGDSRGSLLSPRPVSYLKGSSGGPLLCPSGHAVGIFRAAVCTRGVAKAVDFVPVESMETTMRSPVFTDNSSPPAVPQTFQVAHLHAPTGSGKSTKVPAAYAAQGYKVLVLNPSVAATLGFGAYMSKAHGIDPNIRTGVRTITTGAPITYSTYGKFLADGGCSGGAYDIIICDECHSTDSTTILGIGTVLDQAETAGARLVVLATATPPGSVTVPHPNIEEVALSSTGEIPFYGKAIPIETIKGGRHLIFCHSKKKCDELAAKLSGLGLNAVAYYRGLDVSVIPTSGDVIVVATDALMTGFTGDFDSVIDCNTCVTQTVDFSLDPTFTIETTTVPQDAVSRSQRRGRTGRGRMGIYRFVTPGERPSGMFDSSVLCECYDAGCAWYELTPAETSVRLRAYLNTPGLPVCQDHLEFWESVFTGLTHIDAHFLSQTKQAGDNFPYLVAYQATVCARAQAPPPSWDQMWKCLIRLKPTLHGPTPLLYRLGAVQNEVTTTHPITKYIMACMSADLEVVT

Structure (SMILES) | Ki
CCC[C@H](NC(=O)[C@@H]1C[C@]2(CC(=O)N(c3cccc(Cl)c3)C2)CN1C(=O)[C@@H](NC(=O)CC1CCCCC1)C(C)(C)C)C(=O)C(=O)NC1CC1 [compound 6] | 410 to 700 nM
CCC[C@H](NC(=O)[C@@H]1C[C@@]2(CC(=O)N(c3cccc(Cl)c3)C2)CN1C(=O)[C@@H](NC(=O)CC1CCCCC1)C(C)(C)C)C(=O)C(=O)NC1CC1 [compound 2] | > 700 nM
CCC[C@H](NC(=O)[C@@H]1C[C@@]2(CC(=O)N(c3ccccc3)C2)CN1C(=O)[C@@H](NC(=O)OC1CCCC1)C(C)(C)C)C(=O)C(=O)NC1CC1 [compound 1, Cyclopentyl-(S)-1-((3S,5R)-3-((S)-1-(cyclopropylamino)-1,2-dioxohexan-3-ylcarbamoyl)-8-oxo-7-phenyl-2,7-diazaspiro[4.4]nonan-2-yl)-3,3-dimethyl-1-oxobutan-2-ylcarbamate] | 410 to 700 nM
CCC[C@H](NC(=O)[C@@H]1C[C@]2(CC(=O)N(c3ccccc3)C2)CN1C(=O)[C@@H](NC(=O)OC1CCCC1)C(C)(C)C)C(=O)C(=O)NC1CC1 [compound 4, cyclopentyl (S)-1-((3S,5S)-3-((S)-1-(cyclopropylamino)-1,2-dioxohexan-3-ylcarbamoyl)-8-oxo-7-phenyl-2,7-diazaspiro[4.4]nonan-2-yl)-3,3-dimethyl-1-oxobutan-2-ylcarbamate] | < 410 nM
CCC[C@H](NC(=O)[C@@H]1C[C@@]2(CN(c3cccc(Cl)c3)C(=O)O2)CN1C(=O)[C@@H](NC(=O)OC1CCCC1)C(C)(C)C)C(=O)C(=O)NC1CC1 [compound 7, Cyclopentyl (S)-1-((5S,8S)-3-(3-chlorophenyl)-8-((S)-1-(cyclopropylamino)-1,2-dioxohexan-3-ylcarbamoyl)-2-oxo-1-oxa-3,7-diazaspiro[4.4]nonan-7-yl)-3,3-dimethyl-1-oxobutan-2-ylcarbamate] | < 410 nM
CCC[C@H](NC(=O)[C@@H]1C[C@]2(CN(c3ccccc3)C(=O)O2)CN1C(=O)[C@@H](NC(=O)CC1CCCCC1)C(C)(C)C)C(=O)C(=O)NC1CC1 [compound 5, (5R,8S)-7-((S)-2-(2-cyclohexylacetamido)-3,3-dimethylbutanoyl)-N-((S)-1-(cyclopropylamino)-1,2-dioxohexan-3-yl)-2-oxo-3-phenyl-1-oxa-3,7-diazaspiro[4.4]nonane-8-carboxamide] | > 700 nM
